Tests used:
[1] = test system: rat granulosa cells; test: Cyp19a1 (aromatase) mRNA in primary rat granulosa cells, qPCR relative to Rpl19; type: cell-based; settings: for FSH-stimulation of aromatase (Cyp19a1 mRNA): FSH plus inhibitor vs FSH, 48 hours, rat granulosa cells (rat and mouse)
Protocol: Cyp19a1 mRNA levels were quantified 48 hours later and expressed as relative levels to ribosomal L19 protein (Rp119).
FIG. 5A, Expression of each SIK isoform in rat granulosa cells exposed to scrambled oligos (shSCR) or anti-SIK1 (shSIK1), SIK2 (shSIK2), or SIK3 (shSIK3) shRNAs. *p<0.05, **p<0.01, t-test, n=3. FIG. 5B, Cyp19a1, STARD1, and CYP11a1 relative mRNA expression levels after exposure to shSCR, shSIK1, shSIK2, or shSIK3. […] FIG. 5C, Inverse correlation between SIK2 knockdown with CYP19a1 expression in rat granulosa cells.
(§1) Cyp19a1 mRNA levels were quantified 48 hours later and expressed as relative levels to Rp119. Different letters represent significant differences (mean±SEM, n=5, one-way ANOVA followed by Tukey, p<0.05). FIG. 8B, Immature 23-day-old female mice were injected i.p. with YKL or vehicle (PBS). Two hours later, animals were treated with PMSG or PMSG plus YKL. The expression of CYP19a1, CYP11a1, and STARD1 was quantified 48 hours later. *p<0.05, t-test, n=7.
Rat Granulosa Cells. Rat granulosa cells were isolated from immature rats treated with estradiol for three days. Cells were cultured and treated as described for human granulosa cells. Rat experiments were approved by the Biologic Resources Laboratory (BRL) of the University of Illinois at Chicago.
(§2) mRNA Quantification. Total RNA was isolated at the end of each experiment using TRIzol™ reagent (Invitrogen) according to the manufacturer's protocol. The isolated RNA was reverse-transcribed using anchored oligo-dT primers (IDT, Coralville, Iowa) and Moloney Murine Leukemia Virus reverse transcriptase (Invitrogen) at 37° C. for 1 hour. The resulting cDNA was diluted with water to a final volume of 100 μl and 5 μl of diluted cDNA was used for each qPCR reaction. Gene expression is reported relative to ribosomal protein L19 mRNA (Rp119).

[2] = test system: Mouse granulosa cells; test: Estradiol production by granulosa cells (ELISA); type: cell-based; settings: FSH plus inhibitor, 48 hours
Protocol: Estradiol was determined by ELISA.
Estradiol Measurement. Cell culture medium used for steroid determinations by ELISA (DRG Instruments; RRID: AB_2756386)) following manufacturer's instructions.

[3] = test system: primary human granulosa cells; test: mRNA expression of FSH target genes in primary human granulosa cells; type: cell-based
Excerpt: Different letters represent significant differences (mean±SEM, N≥7, one-way ANOVA followed by Tukey, p<0.05).
Human Granulosa Cells. Human cells were collected from the follicular aspirates of women undergoing in vitro fertilization treatment at the University of Illinois at Chicago Fertility Center, under Institute Review Board approval. Informed consents were obtained from all women. In a subset of patients, additional information was collected to compare the effect of SIK inhibition in patients with different etiologies. Cells were transported immediately to the laboratory where they were dispersed by hyaluronidase digestion (8 IU/μl) and then centrifuged at 500×g for 5 minutes. Cells were incubated at room temperature in red blood cell lysis buffer for 2 minutes to eliminate contaminating erythrocytes. The cells were again centrifuged at 500×g for 5 minutes and suspended in 0.5 ml of serum-free DMEM/F12-0.25% BSA medium containing antibiotics. To investigate mRNA expression, cells were plated at a density of 30000 cells/well in 24-well plates coated with reconstituted basement membrane sold under the tradename Matrigel® (DB Biosciences). To investigate protein expression, cells were plated at a density of 200000 cells/well in 6-well plates coated with reconstituted basement membrane sold under the tradename Matrigel® (DB Biosciences). […] Each data point reflects a result obtained from individual patients. Cells from each patient were cultured separately.
as §2

[4] = test system: granulosa cells; test: In vivo treatment of immature mice with SIK inhibitor before PMSG, granulosa cell mRNA; settings: immature female mice, 10 mg/kg i.p. 2 h before and with PMSG, 48 hours
Protocol: as §1
In vivo Treatment with SIK Inhibitors. […] Controls were injected with 4 IU PMSG alone. granulosa cells were collected 48 hours after PMSG.
as §2

[5] = test system: SIK; settings: in vivo; cited from earlier work
[6] = test system: human granulosa cells; test: CYP19A1 protein (western blot) in granulosa cells of IVF patients with different etiologies; type: cell-based; settings: patient with anovulation, HG alone or in the presence of FSH
Excerpt: Primary granulosa cells were obtained from patients with normal ovarian function (left panel) or patients diagnosed with polycystic ovarian syndrome or anovulation (right panel). […] The intensity of the CYP19a1 and BACT bands was quantified, and the data expressed as a ratio between aromatase and BACT. Different letters represent significant differences, one-way ANOVA followed by Tukey test, p<0.05, (n=5).
Human Granulosa Cells. Human cells were collected from the follicular aspirates of women undergoing in vitro fertilization treatment at the University of Illinois at Chicago Fertility Center, under Institute Review Board approval. Informed consents were obtained from all women. […] Cells were transported immediately to the laboratory where they were dispersed by hyaluronidase digestion (8 IU/μl) and then centrifuged at 500×g for 5 minutes. Cells were incubated at room temperature in red blood cell lysis buffer for 2 minutes to eliminate contaminating erythrocytes. The cells were again centrifuged at 500×g for 5 minutes and suspended in 0.5 ml of serum-free DMEM/F12-0.25% BSA medium containing antibiotics. […] To investigate protein expression, cells were plated at a density of 200000 cells/well in 6-well plates coated with reconstituted basement membrane sold under the tradename Matrigel® (DB Biosciences). […] Each data point reflects a result obtained from individual patients. […]

Question: Which results are given for `O=C(NCCCNc1nc(Nc2cccc(CN3CCOCC3)c2)ncc1C1CC1)C1CCC1` [MRT67307]?
Answer: FSH-stimulation of aromatase (Cyp19a1 mRNA) [1]: Comparable findings; Stimulation of estradiol production by FSH [2]: potentiated the stimulation of estradiol production by FSH in a dose-dependent manner; CYP19A1 mRNA levels, increase vs FSH only ([3]; FSH plus inhibitor, n=16 patients, P<0.0001): 3 fold; CYP19A1 mRNA levels, inhibitor alone ([3]; no FSH): did not affect CYP19A1 mRNA levels

Question: With `COc1ccc(N2C(=O)N(c3c(C)cccc3Cl)Cc3cnc(Nc4ccc(C5CCN(C)CC5)cc4OC)nc32)nc1` [YKL-05-099] as the compound, how does the “FSH-stimulation of aromatase (Cyp19a1 mRNA)” value [1] read?
Answer: enhances the stimulatory effect of FSH on Cyp19a1 mRNA expression in a concentration-dependent manner

Question: What about the “Cyp11a1 mRNA induction by PMSG” value [4] of the same compound?
Answer: only a trend to increase Cyp11a1 mRNA induction

Question: What about the “Stimulatory effect of PMSG on Cyp19a1 mRNA” value [4] of the same compound?
Answer: enhanced the stimulatory effect of PMSG on Cyp19a1 and Stard1 significantly

Question: What about the “Stimulatory effect of PMSG on Stard1 mRNA” value [4] of the same compound?
Answer: enhanced the stimulatory effect of PMSG on Cyp19a1 and Stard1 significantly

Question: And the “Phosphorylation of a known SIK substrate” value [5]?
Answer: reduces phosphorylation of a known SIK substrate

Question: Which results are given for `COc1ccc(N(C(=O)Nc2c(C)cccc2C)c2cc(Nc3ccc(N4CCN(C)CC4)cc3)ncn2)c(OC)c1` [HG-9-91-01]?
Answer: FSH-stimulation of aromatase (Cyp19a1 mRNA) [1]: potentiated FSH-stimulation of aromatase in a concentration-dependent manner; Cyp19a1 mRNA levels, inhibitor alone ([1]; absence of FSH, HG at 1 or 3 μM): increased Cyp19a1 mRNA levels; Stimulation of estradiol production by FSH [2]: potentiated the stimulation of estradiol production by FSH in a dose-dependent manner; IGF2 mRNA expression, FSH plus inhibitor vs FSH alone ([3]; 48 hours): tended to be higher; IGF2 mRNA levels, inhibitor alone vs controls ([3]; absence of FSH): increased IGF2 mRNA levels significantly; CYP11A1 mRNA levels, inhibitor alone ([3]; no FSH): enough to increase STARD1 and CYP11A1 mRNA levels; STARD1 mRNA levels, inhibitor alone ([3]; no FSH): enough to increase STARD1 and CYP11A1 mRNA levels; CYP19A1 levels [6]: stimulated CYP19A1 strongly
